In patent US20100003246A1, “Novel heterocyclic compounds and uses therof” (priority 2008, published 2010):

biological target: T1, b-Raf(V600E) (Homo sapiens, UniProt P15056, V600E); experiment: Raf/Mek Amplified Luminescence Proximity Homogeneous Assay (Alpha Screen), b-Raf(V600E); format: biochemical; settings: mutant b-Raf(V600E), read-out: mut-b-RAF (IC50 in uM)
T1 construct: made in house
How it was run: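 Active b-Raf(V600E) (~4 pM) pre-incubated 60 min at room temperature with compound and kinase-dead biotinylated Mek (~10 nM) in Tris pH 7.5, MgCl2, BSA, DTT; ATP-started reaction ran 3 h, EDTA-stopped. Phospho-MEK detected by anti-p-MEK AlphaScreen luminescence; IC50 by non-linear regression.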

T1 sequence (P15056 whole entry V600E): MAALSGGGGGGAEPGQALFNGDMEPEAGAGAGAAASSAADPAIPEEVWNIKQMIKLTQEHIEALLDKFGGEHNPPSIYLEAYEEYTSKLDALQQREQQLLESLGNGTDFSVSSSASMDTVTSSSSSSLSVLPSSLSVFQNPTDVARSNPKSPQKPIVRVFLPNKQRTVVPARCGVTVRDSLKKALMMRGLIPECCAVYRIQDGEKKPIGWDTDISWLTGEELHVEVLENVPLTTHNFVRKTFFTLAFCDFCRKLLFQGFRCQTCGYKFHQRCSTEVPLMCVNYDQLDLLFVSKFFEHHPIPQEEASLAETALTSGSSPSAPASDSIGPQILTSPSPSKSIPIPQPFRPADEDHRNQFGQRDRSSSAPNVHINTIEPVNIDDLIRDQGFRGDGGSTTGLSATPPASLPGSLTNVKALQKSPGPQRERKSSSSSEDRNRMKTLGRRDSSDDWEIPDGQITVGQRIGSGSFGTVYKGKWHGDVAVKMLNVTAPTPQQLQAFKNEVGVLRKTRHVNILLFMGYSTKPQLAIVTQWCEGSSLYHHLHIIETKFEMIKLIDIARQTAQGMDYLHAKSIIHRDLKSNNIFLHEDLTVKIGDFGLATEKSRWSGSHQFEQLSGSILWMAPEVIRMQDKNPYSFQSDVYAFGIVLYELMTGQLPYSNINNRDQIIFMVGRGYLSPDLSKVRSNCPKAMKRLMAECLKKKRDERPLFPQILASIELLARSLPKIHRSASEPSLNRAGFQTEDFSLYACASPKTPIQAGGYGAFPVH

Row | SMILES | IC50 [µM]
1 | Nc1ncc(-c2[nH]c(-c3ccc(F)cc3)nc2-c2ccncc2)cc1F [Compound 131, 3-fluoro-5-(2-(4-fluorophenyl)-4-(pyridin-4-yl)-1H-imidazol-5-yl)pyridin-2-amine] | 0.174
2 | COc1cc(-c2[nH]c(-c3cccc(S(N)(=O)=O)c3)nc2-c2ccncc2)cnc1N [Compound 132, 3-(5-(6-amino-5-methoxypyridin-3-yl)-4-(pyridin-4-yl)-1H-imidazol-2-yl)benzenesulfonamide] | 0.001
3 | COc1ccc(Cl)cc1-c1nc(-c2ccncc2)c(-c2cnc(N)c(OC)c2)[nH]1 [Compound 133, 5-(2-(5-chloro-2-methoxyphenyl)-4-(pyridin-4-yl)-1H-imidazol-5-yl)-3-methoxypyridin-2-amine] | 0.0005
4 | COc1cc(-c2[nH]c(-c3ccc(F)cc3)nc2-c2ccoc2)cnc1N [Compound 134, 5-(2-(4-fluorophenyl)-4-(furan-3-yl)-1H-imidazol-5-yl)-3-methoxypyridin-2-amine] | 0.0014
5 | COc1cc(-c2[nH]c(-c3ccccc3Cl)nc2-c2ccncc2)cnc1N [Compound 135, 5-(2-(2-chlorophenyl)-4-(pyridin-4-yl)-1H-imidazol-5-yl)-3-methoxypyridin-2-amine] | 0.0004
6 | COc1cc(-c2[nH]c(-c3ccccc3C(F)(F)F)nc2-c2ccncc2)cnc1N [Compound 136, 3-methoxy-5-(4-(pyridin-4-yl)-2-(2-(trifluoromethyl)phenyl)-1H-imidazol-5-yl)pyridin-2-amine] | 0.0028
7 | COc1cc(-c2[nH]c(-c3ccccc3F)nc2-c2ccncc2)cnc1N [Compound 137, 5-(2-(2-fluorophenyl)-4-(pyridin-4-yl)-1H-imidazol-5-yl)-3-methoxypyridin-2-amine] | 0.0017
8 | COc1cc(-c2[nH]c(-c3ccccc3C)nc2-c2ccncc2)cnc1N [Compound 138, 3-methoxy-5-(4-(pyridin-4-yl)-2-o-tolyl-1H-imidazol-5-yl)pyridin-2-amine] | 0.0012
9 | COc1cc(-c2[nH]c(-c3cc(C)ccc3F)nc2-c2ccncc2)cnc1N [Compound 139, 5-(2-(2-fluoro-5-methylphenyl)-4-(pyridin-4-yl)-1H-imidazol-5-yl)-3-methoxypyridin-2-amine] | 0.0012
10 | COc1cc(-c2nc(C(C)C)[nH]c2-c2ccncc2)cnc1N [Compound 140, 5-(2-isopropyl-5-(pyridin-4-yl)-1H-imidazol-4-yl)-3-methoxypyridin-2-amine] | 0.0016
11 | Fc1ccc(-c2nc(-c3ccncc3)c(-c3ccc4nccn4c3)[nH]2)cc1 [Compound 141, 6-(2-(4-fluorophenyl)-4-(pyridin-4-yl)-1H-imidazol-5-yl)imidazo[1,2-a]pyridine] | 0.618
12 | Fc1ccc(-c2nc(-c3ccncc3)c(-c3cnc4c(c3)OCCN4)[nH]2)cc1 [Compound 142, 7-(2-(4-fluorophenyl)-4-(pyridin-4-yl)-1H-imidazol-5-yl)-3,4-dihydro-2H-pyrido[3,2-v][1,4]oxazine] | 0.382
13 | Nc1ncc(-c2[nH]c(-c3ccccc3)nc2-c2ccncc2)cc1O [Compound 143, 2-amino-5-(2-phenyl-4-(pyridin-4-yl)-1H-imidazol-5-yl)pyridin-3-ol] | 0.215
14 | Fc1ccc(-c2nc(-c3ccncc3)c(-c3cnc4[nH]ccc4c3)[nH]2)cc1 [Compound 144, 5-(2-(4-fluorophenyl)-4-(pyridin-4-yl)-1H-imidazol-5-yl)-1H-pyrrolo[2,3-b]pyridine] | 0.003
15 | COc1cc(-c2[nH]c(-c3ccc(C)cc3F)nc2-c2ccncc2)cnc1N [Compound 145, 5-(2-(2-fluoro-4-methylphenyl)-4-(pyridin-4-yl)-1H-imidazol-5-yl)-3-methoxypyridin-2-amine] | 0.0009
16 | COc1cc(-c2[nH]c(-c3ccc(Cl)cc3F)nc2-c2ccncc2)cnc1N [Compound 146, 5-(2-(4-chloro-2-fluorophenyl)-4-(pyridin-4-yl)-1H-imidazol-5-yl)-3-methoxypyridin-2-amine] | 0.0023
17 | COc1cc(-c2[nH]c(-c3ccc(F)cc3C)nc2-c2ccncc2)cnc1N [Compound 147, 5-(2-(4-fluoro-2-methylphenyl)-4-(pyridin-4-yl)-1H-imidazol-5-yl)-3-methoxypyridin-2-amine] | 0.0016
18 | COc1cc(-c2[nH]c(-c3ccc(F)c(C=O)c3)nc2-c2ccncc2)cnc1N [Compound 148, 5-(5-(6-amino-5-methoxypyridin-3-yl)-4-(pyridin-4-yl)-1H-imidazol-2-yl)-2-fluorobenzaldehyde] | 0.0015
19 | COc1cc(-c2[nH]c(-c3ccc(F)c(C)c3)nc2-c2ccncc2)cnc1N [Compound 149, 5-(2-(4-fluoro-3-methylphenyl)-4-(pyridin-4-yl)-1H-imidazol-5-yl)-3-methoxypyridin-2-amine] | 0.0006

Row | SMILES | IC50 [µM]
20 | Fc1ccc(-c2nc(-c3ccncc3)c(-c3ccnc4[nH]ccc34)[nH]2)cc1 [Compound 150, 4-(2-(4-fluorophenyl)-4-(pyridin-4-yl)-1H-imidazol-5-yl)-1H-pyrrolo[2,3-b]pyridine] | 0.775
21 | Fc1ccc(-c2nc(-c3ccncc3)c(-c3cnc4[nH]cc(Br)c4c3)[nH]2)cc1 [Compound 151, 3-bromo-5-(2-(4-fluorophenyl)-4-(pyridin-4-yl)-1H-imidazol-5-yl)-1H-pyrrolo[2,3-b]pyridine] | 0.0007
22 | Cc1cc(-c2[nH]c(-c3ccc(F)cc3)nc2-c2ccncc2)cnc1N [Compound 152, 5-(2-(4-fluorophenyl)-4-(pyridin-4-yl)-1H-imidazol-5-yl)-3-methylpyridin-2-amine] | 0.0658
23 | COc1cccc(Nc2nccc(-c3[nH]c(-c4ccc(F)cc4)nc3-c3cnc(N)c(OC)c3)n2)c1 [Compound 153, 4-(4-(6-amino-5-methoxypyridin-3-yl)-2-(4-fluorophenyl)-1H-imidazol-5-yl)-N-(3-methoxyphenyl)pyrimidin-2-amine] | 0.0002
24 | COc1cc(-c2nc(C3=CCOCC3)[nH]c2-c2ccncc2)cnc1N [Compound 154, 5-(2-(3,6-dihydro-2H-pyran-4-yl)-5-(pyridin-4-yl)-1H-imidazol-4-yl)-3-methoxypyridin-2-amine] | 0.0033
25 | COc1cc(-c2nc(C3=CCNCC3)[nH]c2-c2ccncc2)cnc1N [Compound 155, 3-methoxy-5-(5-(pyridin-4-yl)-2-(1,2,3,6-tetrahydropyridin-4-yl)-1H-imidazol-4-yl)pyridin-2-amine] | 0.0162
26 | COc1cc(-c2nc(C3(O)CCN(C)CC3)[nH]c2-c2ccncc2)cnc1N [Compound 156, 4-(4-(6-amino-5-methoxypyridin-3-yl)-5-(pyridin-4-yl)-1H-imidazol-2-yl)-1-methylpiperidin-4-ol] | 0.0093
27 | CN(C)c1cncc(-c2[nH]c(-c3ccc(F)cc3)nc2-c2ccncc2)c1 [Compound 157, 5-(2-(4-fluorophenyl)-4-(pyridin-4-yl)-1H-imidazol-5-yl)-N,N-dimethylpyridin-3-amine] | 0.017
28 | COc1cc(-c2nc(-c3ccc(F)cc3)[nH]c2-c2ccnc(NC(C)C)n2)cnc1N [Compound 158, 4-(4-(6-amino-5-methoxypyridin-3-yl)-2-(4-fluorophenyl)-1H-imidazol-5-yl)-N-isopropylpyrimidin-2-amine] | 0.0051
29 | COc1cc(-c2nc(-c3ccc(F)cc3)[nH]c2-c2ccnc(NCC(C)C)n2)cnc1N [Compound 159, 4-(4-(6-amino-5-methoxypyridin-3-yl)-2-(4-fluorophenyl)-1H-imidazol-5-yl)-N-isobutylpyrimidin-2-amine] | 0.0015
30 | COCC(=O)NCCNc1nccc(-c2nc(-c3ccc(F)cc3)[nH]c2-c2cnc3[nH]cc(Cl)c3c2)n1 [Compound 160, N-(2-(4-(5-(3-chloro-1H-pyrrolo[2,3-b]pyridin-5-yl)-2-(4-fluorophenyl)-1H-imidazol-4-yl)pyrimidin-2-ylamino)ethyl)-2-methoxyacetamide] | 0.0003
31 | COCCNc1nccc(-c2nc(-c3ccc(F)cc3)[nH]c2-c2cnc(N)c(OC)c2)n1 [Compound 161, 4-(5-(6-amino-5-methoxypyridin-3-yl)-2-(4-fluorophenyl)-1H-imidazol-4-yl)-N-(2-methoxyethyl)pyrimidin-2-amine] | 0.0022
32 | COc1cc(-c2nc(C3CCOCC3)[nH]c2-c2ccncc2)cnc1N [Compound 162, 3-methoxy-5-(5-(pyridin-4-yl)-2-(tetrahydro-2H-pyran-4-yl)-1H-imidazol-4-yl)pyridin-2-amine] | 0.0055
33 | COc1cc(-c2[nH]c(-c3ccc(F)cc3)nc2-c2ccnc(NC3CCCC3)n2)cnc1N [Compound 164, 4-(5-(6-amino-5-methoxypyridin-3-yl)-2-(4-fluorophenyl)-1H-imidazol-4-yl)-N-cyclopentylpyrimidin-2-amine] | 0.0163
34 | COc1cc(-c2[nH]c(-c3ccc(F)cc3)nc2-c2ccnc(NC3CCCCC3)n2)cnc1N [Compound 165, 4-(5-(6-amino-5-methoxypyridin-3-yl)-2-(4-fluorophenyl)-1H-imidazol-4-yl)-N-cyclohexylpyrimidin-2-amine] | 0.0483
35 | COCC(=O)NCCNc1nccc(-c2nc(-c3ccc(F)cc3)[nH]c2-c2cnc3[nH]cc(Br)c3c2)n1 [Compound 166, N-(2-(4-(5-(3-bromo-1H-pyrrolo[2,3-b]pyridin-5-yl)-2-(4-fluorophenyl)-1H-imidazol-4-yl)pyrimidin-2-ylamino)ethyl)-2-methoxyacetamide] | 0.0001
36 | COc1cc(-c2[nH]c(-c3ccc4[nH]ncc4c3)nc2-c2ccncc2)cnc1N [Compound 167, 5-(2-(1H-indazol-5-yl)-4-(pyridin-4-yl)-1H-imidazol-5-yl)-3-methoxypyridin-2-amine] | 0.0007
37 | COc1cc(-c2[nH]c(-c3cccc4cccnc34)nc2-c2ccncc2)cnc1N [Compound 168] | 0.0009
38 | COc1cc(-c2[nH]c(-c3cccc4ncccc34)nc2-c2ccncc2)cnc1N [Compound 169, 3-methoxy-5-(4-(pyridin-4-yl)-2-(quinolin-5-yl)-1H-imidazol-5-yl)pyridin-2-amine] | 0.0016
